The conditions of data set [1]: about 5% to about 95% relative humidity at 25° C. over a period of 3 months.
The nature of data set [2]: interconversion experiments of the polymorphs. As to conditions: for stability class of the polymorph: conclusion from interconversion experiments.
For data set [3] the following is noted: drying under vacuum at ambient temperature or at 60° C.

Here are results for six molecules from patent publication US8975410B2, “Crystal forms of 5-[3-(2,5-dichloro-4, 6-dimethyl-1-oxy-pyridine-3-yl)[1,2,4] oxadiazol-5-yl]-3-nitrobenzene-1,2-diol” (BIAL—Portela & CA., S.A., priority 2008, dated 2015).

Structures are written as SMILES.

With `Cc1c(Cl)c(C)[n+]([O-])c(Cl)c1-c1noc(-c2cc(O)c(O)c([N+](=O)[O-])c2)n1` [polymorph A, 5-[3-(2,5-dichloro-4,6-dimethyl-1-oxy-pyridin-3-yl)-[1,2,4]oxadiazol-5-yl]-3-nitrobenzene-1,2-diol], the hygroscopicity result in data set [1] is “non-hygroscopic”. The “stability class of the polymorph” value in data set [2] is recorded as “thermodynamically stable polymorph”.
In the case of `Cc1c(Cl)c(C)[n+]([O-])c(Cl)c1-c1noc(-c2cc(O)c(O)c([N+](=O)[O-])c2)n1` [polymorph B, 5-[3-(2,5-dichloro-4,6-dimethyl-1-oxy-pyridin-3-yl)-[1,2,4]oxadiazol-5-yl]-3-nitrobenzene-1,2-diol], in data set [2], the “stability class of the polymorph” value is given as “kinetically stable polymorphs”. The “polymorphic conversion when slurried in water” value in data set [2] (slurried in water containing crystal seeds of modification A over prolonged periods of time) was “converts into polymorph A”.
Regarding `Cc1c(Cl)c(C)[n+]([O-])c(Cl)c1-c1noc(-c2cc(O)c(O)c([N+](=O)[O-])c2)n1` [polymorph C, 5-[3-(2,5-dichloro-4,6-dimethyl-1-oxy-pyridin-3-yl)-[1,2,4]oxadiazol-5-yl]-3-nitrobenzene-1,2-diol], the “polymorph produced on drying” value in data set [3] is “produced polymorph B”. Moreover, the “polymorphic conversion in interconversion experiments” value in data set [2] is recorded as “convert into polymorph A or B”.
As for `Cc1c(Cl)c(C)[n+]([O-])c(Cl)c1-c1noc(-c2cc(O)c(O)c([N+](=O)[O-])c2)n1` [polymorph D, 5-[3-(2,5-dichloro-4,6-dimethyl-1-oxy-pyridin-3-yl)-[1,2,4]oxadiazol-5-yl]-3-nitrobenzene-1,2-diol], the “polymorphic conversion in interconversion experiments” value in data set [2] was “convert into polymorph A or B”.
Consider `Cc1c(Cl)c(C)[n+]([O-])c(Cl)c1-c1noc(-c2cc(O)c(O)c([N+](=O)[O-])c2)n1` [polymorph E, 5-[3-(2,5-dichloro-4,6-dimethyl-1-oxy-pyridin-3-yl)-[1,2,4]oxadiazol-5-yl]-3-nitrobenzene-1,2-diol], for which the “polymorph produced on drying” value in data set [3] is “produced polymorph A”. Further, the “polymorphic conversion in interconversion experiments” value in data set [2] is given as “convert into polymorph A or B”.
On to `Cc1c(Cl)c(C)[n+]([O-])c(Cl)c1-c1noc(-c2cc(O)c(O)c([N+](=O)[O-])c2)n1` [polymorph F, 5-[3-(2,5-dichloro-4,6-dimethyl-1-oxy-pyridin-3-yl)-[1,2,4]oxadiazol-5-yl]-3-nitrobenzene-1,2-diol], for which the “polymorphic conversion in interconversion experiments” value in data set [2] is on record as “convert into polymorph A or B”.
